From patent US20230098332A1, “HETEROCYCLIC DERIVATIVES AS TRMP8 ANTAGONISTS” (Givaudan SA, priority 2020, published 2023)
pEC50: −log10 of the molar value. Where a name gives a salt, the structure may show the parent alone.

Biological target: T1, hTRPM8 (Homo sapiens, UniProt Q7Z2W7)
T1 construct: expressed in transfected cells
Assay: Assay on TRPM8 modulators: calcium imaging (Fluo-4, Flexstation) in HEK293 cell line stably expressing hTRPM8
Format: cell-based
Details: TRPM8 agonist activity, calcium influx, HEK293 stably expressing hTRPM8, sigmoidal dose-response fit
Method: A HEK293 cell line stably expressing hTRPM8 was generated according to Klein et al., (Chem. Senses 36: 649-658, 2011) and receptor activation was monitored by calcium imaging in a Flexstation. For Ca-imaging assays of TRPM8 channel activation, cells were seeded on day 0 at a density of 12000 cells per well in Dulbecco's modified Eagle medium (DMEM) containing 9% foetal bovine serum in black, clear bottom 96-well plates that had been coated with 0.001% polyethyleneimine (molecular weight=60 000, Acros Organics). On day 2, agonists were evaluated via calcium imaging using Fluo-4. Briefly, growth medium was discarded, and the cells were incubated in the dark for 1 h at 37° C. in 50 μL loading buffer consisting of 2.7 μM Fluo-4 AM (Invitrogen) and […] probenecid (Sigma-Aldrich) in DMEM (without serum). After incubation, the plates were washed five times with 100 μL of assay buffer (in mM: 130 NaCl, 5 KCl, 10 HEPES, 2 CaCl2, and 10 glucose, pH7.4.) and further incubated in the dark at room temperature for 30 min. The cells were then washed five times with 100 μL assay buffer and then calcium influx to serial dilutions of inventive compounds were measured in a Flexstation 3 (Molecular Devices). Receptor activation was initiated following addition of 20 μl of a 10-fold concentrated ligand stock solution, which is also prepared in assay buffer. Fluorescence was continuously monitored for 15 seconds prior to ligand addition and for 105 seconds after ligand addition, for a total of 120 seconds. Maximal receptor activation in relation to solvent control and relative to 31.6 μM menthol is determined. Data from serial dilutions were processed with a KNIME workflow to fit a sigmoidal dose-response curve and to extrapolate EC50 values.

T1 sequence (Q7Z2W7 whole entry): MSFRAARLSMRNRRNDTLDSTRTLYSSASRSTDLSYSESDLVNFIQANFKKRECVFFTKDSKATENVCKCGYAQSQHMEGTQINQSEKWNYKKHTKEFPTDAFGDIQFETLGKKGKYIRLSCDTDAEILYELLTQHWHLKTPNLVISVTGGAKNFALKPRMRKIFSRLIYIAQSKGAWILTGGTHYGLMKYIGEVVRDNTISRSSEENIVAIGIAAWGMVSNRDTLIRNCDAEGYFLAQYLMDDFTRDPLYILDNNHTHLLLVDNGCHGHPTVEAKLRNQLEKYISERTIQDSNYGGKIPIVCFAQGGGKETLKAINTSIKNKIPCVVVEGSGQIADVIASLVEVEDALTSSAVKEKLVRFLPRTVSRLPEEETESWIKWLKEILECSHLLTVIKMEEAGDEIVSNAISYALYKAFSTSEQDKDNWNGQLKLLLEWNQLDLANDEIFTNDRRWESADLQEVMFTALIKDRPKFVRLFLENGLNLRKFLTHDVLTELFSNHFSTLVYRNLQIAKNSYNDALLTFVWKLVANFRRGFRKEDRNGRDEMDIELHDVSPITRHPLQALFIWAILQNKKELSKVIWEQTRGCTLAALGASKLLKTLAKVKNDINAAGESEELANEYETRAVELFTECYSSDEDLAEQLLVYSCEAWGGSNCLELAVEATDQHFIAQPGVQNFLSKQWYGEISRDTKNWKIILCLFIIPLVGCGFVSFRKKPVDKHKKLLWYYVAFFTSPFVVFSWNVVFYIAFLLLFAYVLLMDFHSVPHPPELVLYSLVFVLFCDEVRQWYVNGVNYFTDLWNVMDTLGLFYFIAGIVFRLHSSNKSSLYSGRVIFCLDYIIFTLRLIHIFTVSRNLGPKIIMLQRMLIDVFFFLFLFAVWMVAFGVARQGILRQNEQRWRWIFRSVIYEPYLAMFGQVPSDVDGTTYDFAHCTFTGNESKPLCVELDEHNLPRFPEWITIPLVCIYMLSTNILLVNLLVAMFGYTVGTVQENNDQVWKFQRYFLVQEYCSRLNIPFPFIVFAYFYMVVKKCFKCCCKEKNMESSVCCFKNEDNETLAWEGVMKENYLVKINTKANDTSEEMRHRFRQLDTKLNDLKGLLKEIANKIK

| pEC50 | SMILES |
| --- | --- |
| 4.46 to 6.00 | Cc1ccc(OCCN2CCNCC2)c(Cc2ccccc2)c1 [compound 88, 1-(2-(2-benzyl-4-methylphenoxy)ethyl)piperazine] |
| 4.46 to 6.00 | Cc1ccc(OCCN2CCC(O)CC2)c(Cc2ccccc2)c1 [compound 89, 1-(2-(2-benzyl-4-methylphenoxy)ethyl)piperidin-4-ol] |
| 6.00 to 6.52 | Cc1ccc(OC(C)CN2CCN(C)CC2)c(Cc2ccccc2)c1 (centres unmarked) [compound 91, 1-(2-(2-benzyl-4-methylphenoxy)propyl)-4-methylpiperazine hydrochloride] |
| 4.46 to 6.00 | Cc1cccc(Cc2ccccc2)c1OCCN1CCN(C)CC1 [compound 92, 1-(2-(2-benzyl-6-methylphenoxy)ethyl)-4-methylpiperazine] |
| 4.46 to 6.00 | CN1CCN(CCOc2ccccc2Cc2ccccc2)CC1 [compound 93, 1-(2-(2-benzylphenoxy)ethyl)-4-methylpiperazine hydrochloride] |
| 4.46 to 6.00 | Cc1ccc(OCCN2CCN(C)CC2)c(CC(C)C)c1 [compound 94, 1-(2-(2-isobutyl-4-methylphenoxy)ethyl)-4-methylpiperazine] |
| 4.46 to 6.00 | Cc1ccc(CCN2CCN(C)CC2)c(Cc2ccccc2)c1 [compound 96, 1-(2-benzyl-4-methylphenethyl)-4-methylpiperazine] |
| 6.00 to 6.52 | Cc1ccc(CC(O)CN2CCN(C)CC2)c(Cc2ccccc2)c1 (centres unmarked) [compound 97, 1-(2-benzyl-4-methylphenyl)-3-(4-methylpiperazin-1-yl)propan-2-ol] |
| 4.46 to 6.00 | Cc1ccc(CC(=O)CN2CCN(C)CC2)c(Cc2ccccc2)c1 [compound 98, 1-(2-benzyl-4-methylphenyl)-3-(4-methylpiperazin-1-yl)propan-2-one] |
| 4.46 to 6.00 | Cc1ccc(OCCCN2CCN(C)CC2)c(Cc2ccccc2)c1 [compound 99, 1-(3-(2-benzyl-4-methylphenoxy)propyl)-4-methylpiperazine hydrochloride] |
| 6.00 to 6.52 | Cc1ccc(OCCN2CCN(C)CC2)c(C(C)c2ccccc2)c1 (centres unmarked) [compound 101, 1-methyl-4-(2-(4-methyl-2-(1-phenylethyl)phenoxy)ethyl)piperazine] |
| 6.00 to 6.52 | C=C(c1ccccc1)c1cc(C)ccc1OCCN1CCN(C)CC1 [compound 102, 1-methyl-4-(2-(4-methyl-2-(1-phenylvinyl)phenoxy)ethyl)piperazine] |
| 6.00 to 6.52 | Cc1ccc(OCCN2CCN(C)CC2)c(Cc2ccccc2C)c1 [compound 103, 1-methyl-4-(2-(4-methyl-2-(2-methylbenzyl)phenoxy)ethyl)piperazine] |
| 4.46 to 6.00 | Cc1cccc(Cc2cc(C)ccc2OCCN2CCN(C)CC2)c1 [compound 104, 1-methyl-4-(2-(4-methyl-2-(3-methylbenzyl)phenoxy)ethyl)piperazine] |
| 6.00 to 6.52 | Cc1ccc(OCCN2CCN(C)CC2)c(Cc2cccs2)c1 [compound 105, 1-methyl-4-(2-(4-methyl-2-(thiophen-2-ylmethyl)phenoxy)ethyl)piperazine hydrochloride] |
| 6.00 to 6.52 | Cc1cc(C)c(OC(C)CO)c(Cc2ccccc2C#N)c1 (centres unmarked) [compound 106, 2-(2-((1-hydroxypropan-2-yl)oxy)-3,5-dimethylbenzyl)benzonitrile] |
| 6.52 to 7.30 | Cc1ccc(CC(O)CN2CCOCC2)c(Oc2ccccc2C#N)c1 (centres unmarked) [compound 107, 2-(2-(2-hydroxy-3-morpholinopropyl)-5-methylphenoxy)benzonitrile] |
| 6.52 to 7.30 | Cc1cc(C)c(OCCN2CCOCC2)c(Cc2ccccc2CC#N)c1 [compound 108, 2-(2-(3,5-dimethyl-2-(2-morpholinoethoxy)benzyl)phenyl)acetonitrile] |
| 4.46 to 6.00 | Cc1cc(C)c(OCCN2CCN(C)CC2)cc1Cc1ccccc1C#N [compound 109, 2-(2,4-dimethyl-5-(2-(4-methylpiperazin-1-yl)ethoxy)benzyl)benzonitrile] |
| 6.00 to 6.52 | Cc1ccc(NCCN2CCOCC2)c(Cc2c(F)cccc2F)c1 [compound 110, 2-(2,6-difluorobenzyl)-4-methyl-N-(2-morpholinoethyl)aniline] |
| 6.00 to 6.52 | Cc1cc(C)c(N(C)CCN2CCOCC2)c(Cc2c(F)cccc2F)c1 [compound 111, 2-(2,6-difluorobenzyl)-N,4,6-trimethyl-N-(2-morpholinoethyl)aniline] |
| > 7.30 | Cc1ccc(N(C)CCN2CCOCC2)c(Cc2c(F)cccc2F)c1 [compound 112, 2-(2,6-difluorobenzyl)-N,4-dimethyl-N-(2-morpholinoethyl)aniline] |

| pEC50 | SMILES |
| --- | --- |
| 6.00 to 6.52 | Cc1cc(C)c(N(C)CCN2CCOCC2)c(Cc2ccccc2F)c1 [compound 113, 2-(2-fluorobenzyl)-N,4,6-trimethyl-N-(2-morpholinoethyl)aniline] |
| 6.52 to 7.30 | Cc1ccc(N(C)CCN2CCOCC2)c(Cc2ccccc2F)c1 [compound 114, 2-(2-fluorobenzyl)-N,4-dimethyl-N-(2-morpholinoethyl)aniline] |
| 6.52 to 7.30 | Cc1cc(C)c(OC(C)CN2CCN(C)CC2)c(Cc2ccccc2C#N)c1 (centres unmarked) [compound 115, 2-(3,5-dimethyl-2-((1-(4-methylpiperazin-1-yl)propan-2-yl)oxy)benzyl)benzonitrile] |
| 6.52 to 7.30 | Cc1cc(C)c(OC(C)CN2CCN(C)CC2)c(Cc2ccccc2C#N)c1 (centres unmarked) [compound 116, 2-(3,5-dimethyl-2-((1-(4-methylpiperazin-1-yl)propan-2-yl)oxy)benzyl)benzonitrile hydrochloride] |
| 6.52 to 7.30 | Cc1cc(C)c(OCCN2CCN(C)CC2)c(Cc2ccccc2C#N)c1 [compound 117, 2-(3,5-dimethyl-2-(2-(4-methylpiperazin-1-yl)ethoxy)benzyl)benzonitrile] |
| 6.52 to 7.30 | Cc1cc(C)c(OCCN2CCOCC2)c(Cc2c(F)cccc2C#N)c1 [compound 120, 2-(3,5-dimethyl-2-(2-morpholinoethoxy)benzyl)-3-fluorobenzonitrile] |
| 4.46 to 6.00 | Cc1cc(C)c(OCCN2CCOCC2)c(Cc2ccccc2N)c1 [compound 121, 2-(3,5-dimethyl-2-(2-morpholinoethoxy)benzyl)aniline] |
| 6.52 to 7.30 | Cc1cc(C)c(OCCCN2CCOCC2)c(Cc2ccccc2C#N)c1 [compound 124, 2-(3,5-dimethyl-2-(3-morpholinopropoxy)benzyl)benzonitrile] |
| > 7.30 | Cc1cc(C)c(N(C)CCN2CCOCC2)c(Cc2ccccc2C#N)c1 [compound 126, 2-(3,5-dimethyl-2-(methyl(2-morpholinoethyl)amino)benzyl)benzonitrile] |
| 4.46 to 6.00 | Cc1ccc(Oc2ccccc2C#N)c(CCCN2CCN(C)CC2)c1 [compound 127, 2-(4-methyl-2-(3-(4-methylpiperazin-1-yl)propyl)phenoxy)benzonitrile] |
| 4.46 to 6.00 | Cc1ccc(OCCC2CCN(C)CC2)c(Cc2ccccc2C#N)c1 [compound 128, 2-(5-methyl-2-(2-(1-methylpiperidin-4-yl)ethoxy)benzyl)benzonitrile] |
| 6.52 to 7.30 | Cc1ccc(OCCN2CCN(C)CC2)c(Cc2ccccc2C#N)c1 [compound 129, 2-(5-methyl-2-(2-(4-methylpiperazin-1-yl)ethoxy)benzyl)benzonitrile] |
| 4.46 to 6.00 | Cc1ccc(OCCN2CCOCC2)c(CC2CCCCC2=O)c1 (centres unmarked) [compound 131, 2-(5-methyl-2-(2-morpholinoethoxy)benzyl)cyclohexan-1-one] |
| 6.00 to 6.52 | Cc1ccc(OCC(C)N2CCOCC2)c(Cc2ccccc2C#N)c1 (centres unmarked) [compound 132, 2-(5-methyl-2-(2-morpholinopropoxy)benzyl)benzonitrile] |
| 6.52 to 7.30 | Cc1ccc(CCCN2CCN(C)CC2)c(Oc2ccccc2C#N)c1 [compound 133, 2-(5-methyl-2-(3-(4-methylpiperazin-1-yl)propyl)phenoxy)benzonitrile] |
| 4.46 to 6.00 | Cc1ccc(NCCN2CCN(C)CC2)c(Cc2ccccc2)c1 [compound 135, 2-benzyl-4-methyl-N-(2-(4-methylpiperazin-1-yl)ethyl)aniline] |
| 4.46 to 6.00 | Cc1ccc(OC(=O)CN2CCN(C)CC2)c(Cc2ccccc2)c1 [compound 136, 2-benzyl-4-methylphenyl 2-(4-methylpiperazin-1-yl)acetate] |
| 6.52 to 7.30 | Cc1ccc(N(C)CCN2CCOCC2)c(Cc2ccccc2)c1 [compound 138, 2-benzyl-N,4-dimethyl-N-(2-morpholinoethyl)aniline] |
| 4.46 to 6.00 | Cc1cc(C)c(OCCN2CCN(C)CC2)c(Cc2cccc(C#N)c2)c1 [compound 139, 3-(3,5-dimethyl-2-(2-(4-methylpiperazin-1-yl)ethoxy)benzyl)benzonitrile dihydrochloride] |
| 6.00 to 6.52 | Cc1cc(C)c(OCCN2CCOCC2)c(Cc2c(Br)cccc2C#N)c1 [compound 141, 3-bromo-2-(3,5-dimethyl-2-(2-morpholinoethoxy)benzyl)benzonitrile] |
| 6.00 to 6.52 | Cc1cc(C)c(OCCN2CCOCC2)c(Cc2c(Cl)cccc2C#N)c1 [compound 142, 3-chloro-2-(3,5-dimethyl-2-(2-morpholinoethoxy)benzyl)benzonitrile] |
| 6.52 to 7.30 | Cc1cc(C)c(OCC(C)N2CCOCC2)c(Cc2c(F)cccc2F)c1 (centres unmarked) [compound 143, 4-(1-(2-(2,6-difluorobenzyl)-4,6-dimethylphenoxy)propan-2-yl)morpholine] |
